# Test results published in patent US20260102359A1, “COMBINATION TREATMENT OF DERMAL AND TRANSDERMAL FIBROTIC DISEASES, DISORDERS AND ASSOCIATED PAIN AND INFLAMMATION” (ERESINA, LLC, priority 2022, published 2026).
# Counter-ions that a name gives are not always drawn.
# System: hDMFa myofibroblast cells
row,Compound,Compound Myofibroblast Cytotoxicity Activity
1,"CC(C)N1CCN(c2ccc(OCC3COC(Cn4cncn4)(c4ccc(Cl)cc4Cl)O3)cc2)CC1 (stereo not shown) [Cmpd 928, Terconazole]",++
2,"CNCCC(Oc1ccc(C(F)(F)F)cc1)c1ccccc1 (stereo not shown) [Cmpd 464, Fluoxetine HCl]",+++
3,"CC[C@]1(O)C[C@@H]2CN(CCc3c([nH]c4ccccc34)[C@@](C(=O)OC)(c3cc4c(cc3OC)N(C)[C@H]3[C@@](O)(C(=O)OC)[C@H](OC(C)=O)[C@]5(CC)C=CCN6CC[C@]43[C@@H]65)C2)C1 [Cmpd 1002, Vinblastine sulfate]",++
4,"CCOC(=O)C=Cc1ccccc1 [Cmpd 437, Ethyl Cinnamate]",++
5,Cyclo(RGDyK) [Cmpd 303],++
6,"CC1(C)O[C@@H]2C[C@H]3[C@@H]4C[C@H](F)C5=CC(=O)C=C[C@]5(C)[C@H]4[C@@H](O)C[C@]3(C)[C@]2(C(=O)CO)O1 [Cmpd 461, Flunisolide]",++
7,"NCCC(O)(P(=O)([O-])O)P(=O)([O-])O.[Na+].[Na+] [Cmpd 756, Pamidronate Disodium]",+++
8,"Cc1cccc(N(C)C(=S)Oc2ccc3ccccc3c2)c1 [Cmpd 956, Tolnaftate]",++++
9,"Nc1ccc(S(=O)(=O)Nc2ccnn2-c2ccccc2)cc1 [Cmpd 899, Sulfaphenazole]",+++
10,"CC/C=C\C/C=C\C/C=C\C/C=C\C/C=C\C/C=C\CCC(=O)O [Cmpd 375, Docosahexaenoic Acid]",+++
11,"Cc1cn(-c2cc(NC(=O)c3ccc(C)c(Nc4nccc(-c5cnccn5)n4)c3)cc(C(F)(F)F)c2)cn1 [Cmpd 818, Radotinib(IY-5511)]",++++
12,"O=c1ccn([C@H]2C[C@H](O)[C@@H](CO)O2)c(=O)[nH]1 [Cmpd 47, 2-Deoxyuridine]",++
13,"C=Cc1c(C)c2cc3nc(cc4[nH]c(cc5nc(cc1[nH]2)C(C)=C5CCC(=O)O)c(CCC(=O)OC)c4C)[C@@]1(C)C3=CC=C(C(=O)OC)[C@H]1C(=O)OC [Cmpd 999, Verteporfin]",+++++
14,"CC(=O)Oc1cc2c(s1)CCN(C(C(=O)C1CC1)c1ccccc1F)C2.Cl (stereo not shown) [Cmpd 794, Prasugrel hydrochloride]",++
15,"CCOC(=O)C1=C(COCCN)NC(C)=C(C(=O)OC)C1c1ccccc1Cl (stereo not shown) [Cmpd 110, Amlodipine]",+++
16,"Nc1ccc(S(=O)(=O)NC(=O)c2ccccc2)cc1 [Cmpd 893, Sulfabenzamide]",++
17,"COc1ccc(CCN2CCC(Nc3nc4ccccc4n3Cc3ccc(F)cc3)CC2)cc1 [Cmpd 136, Astemizole]",++++
18,"CN(C)CCCN1c2ccccc2CCc2ccccc21 [Cmpd 523, Imipramine (hydrochloride)]",+++
19,"CSc1ccc2c(c1)N(CCC1CCCCN1C)c1ccccc1S2 (stereo not shown) [Cmpd 940, Thioridazine HCl]",++++
20,"C=C1CC[C@@H]2[C@](C)(CO)[C@H](O)CC[C@@]2(C)[C@@H]1/C=C/C1=CCOC1=O [Cmpd 334, Dehydroandrographolide]",++

row,Compound,Compound Myofibroblast Cytotoxicity Activity
1,"CC(C)(CO)[C@@H](O)C(=O)NCCC(=O)[O-].[Na+] [Cmpd 391, D-Pantothenate sodium]",++
2,"Cc1coc2c1C(=O)C(=O)c1c-2ccc2c1CCCC2(C)C [Cmpd 913, Tanshinone IIA]",+++++
3,"COc1cc2/c(=N/c3ccc(Br)cc3F)nc[nH]c2cc1OCC1CCN(C)CC1 [Cmpd 994, Vandetanib (ZD6474)]",++++
4,"c1cc(-c2cnn3cc(-c4ccc(N5CCNCC5)cc4)cnc23)c2cccnc2c1 [Cmpd 575, LDN-212854]",++++
5,"Cc1c(OCC(F)(F)F)ccnc1C[S@@+]([O-])c1nc2ccccc2[nH]1 [Cmpd 345, Dexlansoprazole]",++
6,"O=C1Cc2cc(CCN3CCN(c4nsc5ccccc45)CC3)c(Cl)cc2N1 [Cmpd 1029, Ziprasidone HCl]",++
7,"O=c1ccc2[n+]([O-])c3ccc(O)cc3oc-2c1 [Cmpd 827, Resazurin sodium salt]",++
8,"C[C@@H](O[C@H]1OCCN(Cc2n[nH]c(=O)[nH]2)[C@H]1c1ccc(F)cc1)c1cc(C(F)(F)F)cc(C(F)(F)F)c1 [Cmpd 126, Aprepitant]",++++
9,"C[C@]12CC[C@@H]3c4ccc(OS(=O)(=O)O)cc4CC[C@H]3[C@@H]1CCC2=O [Cmpd 432, Estropipate]",+++
10,"O=C([O-])c1ccccc1.[Na+] [Cmpd 870, Sodium benzoate]",++++
11,"CC(=O)CCC(=O)O [Cmpd 583, Levulinic acid]",++
12,"O=c1ccn([C@@H]2O[C@H](COP(=O)([O-])OP(=O)([O-])OP(=O)([O-])O)[C@@H](O)[C@H]2O)c(=O)[nH]1.[Na+].[Na+].[Na+] [Cmpd 990, UTP, Trisodium Salt]",++
13,"O=P1(NCCCl)OCCCN1CCCl (stereo not shown) [Cmpd 518, Ifosfamide]",+++
14,"C[C@H]1O[C@H](OC2[C@@H](O)[C@@H](O)C(O)[C@H](O)[C@H]2O)[C@@H](N)C[C@@H]1N=C(N)C(=O)O.Cl (stereo partly shown) [Cmpd 548, Kasugamycin (hydrochloride)]",+++
15,"Cc1c(C)c2c(c(C)c1O)CCC(C)(CCCC(C)CCCC(C)CCCC(C)C)O2 (racemic) [Cmpd 373, DL-α-Tocopherol]",++
16,"CN(C)[C@@H](CCOc1cccc2ccccc12)c1ccccc1 [Cmpd 322, Dapoxetine HCl]",++
17,"COc1cc2nccc(Oc3ccc(NC(=O)C4(C(=O)Nc5ccc(F)cc5)CC4)cc3)c2cc1OC.O=C(O)C[C@H](O)C(=O)O [Cmpd 199, Cabozantinib malate (XL184)]",++
18,"Lecithin, Soybean [Cmpd 577]",+
19,"Clc1ccc(C(c2ccccc2Cl)C(Cl)Cl)cc1 (stereo not shown) [Cmpd 681, Mitotane (Lsodren)]",+++
20,"CC(C)c1c(C(=O)Nc2ccccc2)c(-c2ccccc2)c(-c2ccc(F)cc2)n1CC[C@@H](O)C[C@@H](O)CC(=O)[O-].CC(C)c1c(C(=O)Nc2ccccc2)c(-c2ccccc2)c(-c2ccc(F)cc2)n1CC[C@@H](O)C[C@@H](O)CC(=O)[O-].[Ca+2] [Cmpd 140, Atorvastatin Calcium]",++++

row,Compound,Compound Myofibroblast Cytotoxicity Activity
1,"O=P(O)(O)C(Cl)(Cl)P(=O)(O)O [Cmpd 282, Clodronate (sodium salt hydrate)]",+++
2,"C1CCc2nnnn2CC1 [Cmpd 770, Pentylenetetrazole]",++++
3,"COc1cc2ncnc(Nc3ccc(F)c(Cl)c3)c2cc1NC(=O)/C=C/CN1CCCCC1 [Cmpd 313, Dacomitinib (PF299804, PF299)]",+++
4,"O=C1NC(=O)[C@@H](c2cn3c4c(cccc24)CCC3)[C@@H]1c1c[nH]c2ccccc12 [Cmpd 950, Tivantinib (ARQ 197)]",++
5,"Cc1[nH]c(/C=C2\C(=O)Nc3ccccc32)c(C)c1CCC(=O)O [Cmpd 979, TSU-68 (SU6668, Orantinib)]",++
6,"OC[C@H]1O[C@H](OC[C@H]2O[C@H](O[C@]3(CO)O[C@H](CO)[C@@H](O)[C@@H]3O)[C@H](O)[C@@H](O)[C@@H]2O)[C@H](O)[C@@H](O)[C@H]1O [Cmpd 308, D-(+)-Raffinose (hydrate)]",++
7,"Cl.Cl.Fc1ccc(C(c2ccc(F)cc2)N2CCN(C/C=C/c3ccccc3)CC2)cc1 [Cmpd 460, Flunarizine 2HCl]",++
8,"CC/C(=C(/CC)c1ccc(O)cc1)c1ccc(O)cc1 [Cmpd 358, Diethylstilbestrol]",+++
9,"CCN(CC)CC#CCOC(=O)C(O)(c1ccccc1)C1CCCCC1 (stereo not shown) [Cmpd 747, Oxybutynin]",++
10,"O=CC[C@H](O)[C@H](O)CO [Cmpd 46, 2-Deoxy-D-ribose]",++++
11,"CC(O)Cn1cnc2c1c(=O)n(C)c(=O)n2C (stereo not shown) [Cmpd 805, Proxyphylline]",++
12,"CCN(CCCCOC(=O)c1ccc(OC)c(OC)c1)C(C)Cc1ccc(OC)cc1.Cl (stereo not shown) [Cmpd 638, Mebeverine Hydrochloride]",++
13,"CC(C)=CCC/C(C)=C/CC/C(C)=C/CC/C(C)=C/CC1=C(C)C(=O)c2ccccc2C1=O [Cmpd 652, Menaquinone 4]",++
14,"Oc1ccc(Cl)cc1Cc1cc(Cl)ccc1O [Cmpd 353, Dichlorophen]",+++++
15,"COc1cc(/C=C/C(=O)O)ccc1O [Cmpd 453, Ferulic Acid]",++
16,"CNCCCC12CCC(c3ccccc31)c1ccccc12 [Cmpd 635, Maprotiline HCl]",+++
17,"CCOc1nc2cccc(C(=O)O)c2n1Cc1ccc(-c2ccccc2-c2nnn[nH]2)cc1 [Cmpd 210, Candesartan]",++
18,"O=C(N/N=C/c1ccc([N+](=O)[O-])o1)c1ccc(O)cc1 [Cmpd 711, Nifuroxazide]",++
